This is an account of results in BindingDB's records for doi:10.1016/j.bmcl.2012.04.118 (Astrazeneca, 2012).

The assay can be described thus: Inhibition of MCP1-induced CCR2-mediated chemotaxis in human THP-1 cells.

Turning to `CC(C)N1CCN[C@@H](C(=O)N2CCN(C(=O)Nc3ccc(Cl)c(Cl)c3)CC2)C1`, the IC50 (as a rule, the concentration that gives 50% inhibition) worked out at 5.1 nM.
